Experimental data: PMC2939063, “In Vitro and In Vivo Studies of the Trypanocidal Properties of WRR-483 against Trypanosoma cruzi” (PLoS Neglected Tropical Diseases, 2010)
Entries after “also recorded” stand apart in the source; their conditions may differ.

Experiments:
Cathepsin V = target: T1, Cathepsin V (Homo sapiens, UniProt O60911); assay: Protease inhibition profiling (Reaction Biology Corp): Cathepsin V; format: biochemical
T1 construct: Reaction Biology Corp (screening service)

tbcatB = target: T2, tbcatB (Trypanosoma brucei, UniProt Q6R7Z5); assay: tbcatB enzyme assay; format: biochemical
T2 construct: made in house
T2 sequence (Q6R7Z5 23-340): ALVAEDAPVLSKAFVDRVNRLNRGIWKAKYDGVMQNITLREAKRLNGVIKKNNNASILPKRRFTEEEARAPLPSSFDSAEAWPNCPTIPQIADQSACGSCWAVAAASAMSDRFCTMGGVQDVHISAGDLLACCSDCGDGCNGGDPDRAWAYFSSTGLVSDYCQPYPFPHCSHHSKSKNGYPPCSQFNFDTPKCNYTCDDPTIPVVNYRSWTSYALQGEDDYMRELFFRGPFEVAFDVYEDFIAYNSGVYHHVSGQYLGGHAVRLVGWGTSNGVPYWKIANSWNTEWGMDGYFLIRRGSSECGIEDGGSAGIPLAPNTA
Method: (§1) Cruzain[27],[28], rhodesain [29], and tbcatB [30] were recombinantly expressed as described previously. TbcatB assays were performed as described previously.[31] Cruzain (2 nM) or rhodesain (3 nM) was incubated with 0.5 to 10 µM inhibitor concentration in 100 mM sodium acetate at pH 5.5, containing 5 mM DTT (buffer A) for 5 min at room temperature. Then buffer A containing Z-Phe-Arg-AMC (Bachem, K M = 1 µM) was added to enzyme inhibitor to give 20 µM substrate concentration in 200 µL, and the increase in fluorescence (excitation at 355 nm and emission at 460 nm) was followed with an automated microtiter plate spectrofluorometer (Molecular Devices, Flex station). Inhibitor stock solutions were prepared at 20 mM in DMSO, and serial dilutions were made in DMSO (0.7% DMSO in assay). Controls were performed using enzyme alone and enzyme with DMSO. IC50 values were determined graphically using inhibitor concentrations in the linear portion of a plot of inhibition versus log[I] (seven concentrations tested with at least two in the linear range).
(§2) Inhibitor dilutions which produce simple exponential progress curves over a wide range of k obs, were used to determine kinetic parameters. The value of k obs, the rate constant for loss of enzyme activity, was determined from an equation for pseudo first order dynamics using Prism 4.0 (GraphPad). When k obs varied linearly with inhibitor concentration, k ass was determined by linear regression analysis. If the variation was hyperbolic, indicating saturation inhibition kinetics, k inact and K i were determined from an equation describing a two-step irreversible inhibitor mechanism [k obs = k inact [I]o/([I]o+Ki* (1+[S]o/K M))] and non-linear regression analysis Prism 4.0.[32] All values were corrected for substrate concentration.

[1] = test system: T. cruzi infection in BESM cells; parameters: method as in PMID 20547819; details: read-out: EC50 against T. cruzi infection in BESM cells; cited from earlier work
Cathepsin K = target: T3, Cathepsin K (Homo sapiens, UniProt P43235); assay: Protease inhibition profiling (Reaction Biology Corp): Cathepsin K; format: biochemical
T3 construct: Reaction Biology Corp (screening service)
T3 sequence (P43235 115-329): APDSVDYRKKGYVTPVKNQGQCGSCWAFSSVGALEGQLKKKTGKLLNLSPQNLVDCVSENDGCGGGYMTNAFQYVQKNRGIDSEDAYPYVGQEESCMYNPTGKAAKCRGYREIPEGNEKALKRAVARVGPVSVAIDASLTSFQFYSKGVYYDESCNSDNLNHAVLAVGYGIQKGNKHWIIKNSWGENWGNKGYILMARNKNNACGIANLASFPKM

[2] = test system: T. cruzi CA-I/72 infected C3H mice; assay: Murine model of acute Chagas' disease; format: in vivo, mouse; parameters: key to Histopathology, Heart / Histopathology, Liver / Histopathology, Spleen / Histopathology, Colon: I/I: Inflammation and infiltration; +10A: Numerous nests of T. cruzi amastigotes; +A: 1-3 nests of T. cruzi amastigotes; Negative
Method: Three to four week old female C3H mice weighing ca. 20 g were used. The animals were separated into five lots of 5 mice per cage and infected with 10^6 tissue-culture derived trypomastigotes of the myotropic T. cruzi CA-I/72 cloned stock. The mice were treated with 100 mg compound/kg of body weight in 100 µL of solution (30–40% DMSO: 60–70% sterile distilled water) intraperitoneally twice a day. Treatment was initiated 12 h post infection and continued until cure, death of the animals, or for a total of 20 days. […] Parasitemias was determined at the end of the experiment when animals were euthanized. Tissues processed for histopathology include skeletal muscle, heart, liver, spleen, and colon. Blood (5–50 µL) was used for hemocultures. […] Compounds were considered toxic if life expectancy is lower than untreated controls (negative values). If necessary, PCR of blood and tissues was performed to confirm effectiveness of treatment and/or cure of treated animals. Results were expressed as survival (days) of treated animals.

Cathepsin S = target: T4, Cathepsin S (Homo sapiens, UniProt P25774); assay: Protease inhibition profiling (Reaction Biology Corp): Cathepsin S; format: biochemical
T4 construct: Reaction Biology Corp (screening service)
T4 sequence (P25774 115-331, species assumed): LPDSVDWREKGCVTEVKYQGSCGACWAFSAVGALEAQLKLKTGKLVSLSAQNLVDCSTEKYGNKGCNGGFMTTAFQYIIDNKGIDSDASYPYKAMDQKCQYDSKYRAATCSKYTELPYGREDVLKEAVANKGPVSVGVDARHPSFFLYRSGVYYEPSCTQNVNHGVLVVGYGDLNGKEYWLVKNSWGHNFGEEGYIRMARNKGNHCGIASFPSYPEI

Rhodesain = target: T5, Rhodesain (Trypanosoma brucei rhodesiense, UniProt Q95PM0); assay: Rhodesain enzyme assay (acetate buffer pH 5.5, Z-Phe-Arg-AMC); format: biochemical, T. brucei; details: 100 mM sodium acetate pH 5.5, 5 mM DTT
T5 construct: made in house
T5 sequence (Q95PM0 entry or part of it): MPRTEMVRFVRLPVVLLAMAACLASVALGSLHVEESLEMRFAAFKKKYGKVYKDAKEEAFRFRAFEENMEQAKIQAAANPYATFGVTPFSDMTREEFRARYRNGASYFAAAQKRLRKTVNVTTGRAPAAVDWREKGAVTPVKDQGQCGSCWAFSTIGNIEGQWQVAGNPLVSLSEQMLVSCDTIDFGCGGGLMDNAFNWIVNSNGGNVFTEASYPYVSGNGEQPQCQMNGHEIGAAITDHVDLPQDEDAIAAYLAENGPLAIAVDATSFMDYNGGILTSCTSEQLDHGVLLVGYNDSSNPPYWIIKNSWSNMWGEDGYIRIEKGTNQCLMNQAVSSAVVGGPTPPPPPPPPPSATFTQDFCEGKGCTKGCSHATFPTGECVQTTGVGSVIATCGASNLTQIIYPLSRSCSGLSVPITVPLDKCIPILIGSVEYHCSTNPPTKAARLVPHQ
Method: as §1, §2

Cathepsin C = target: T6, Cathepsin C (Homo sapiens, UniProt P53634); assay: Protease inhibition profiling (Reaction Biology Corp): Cathepsin C; format: biochemical
T6 construct: Reaction Biology Corp (screening service)
T6 sequence (P53634 25-463, species assumed): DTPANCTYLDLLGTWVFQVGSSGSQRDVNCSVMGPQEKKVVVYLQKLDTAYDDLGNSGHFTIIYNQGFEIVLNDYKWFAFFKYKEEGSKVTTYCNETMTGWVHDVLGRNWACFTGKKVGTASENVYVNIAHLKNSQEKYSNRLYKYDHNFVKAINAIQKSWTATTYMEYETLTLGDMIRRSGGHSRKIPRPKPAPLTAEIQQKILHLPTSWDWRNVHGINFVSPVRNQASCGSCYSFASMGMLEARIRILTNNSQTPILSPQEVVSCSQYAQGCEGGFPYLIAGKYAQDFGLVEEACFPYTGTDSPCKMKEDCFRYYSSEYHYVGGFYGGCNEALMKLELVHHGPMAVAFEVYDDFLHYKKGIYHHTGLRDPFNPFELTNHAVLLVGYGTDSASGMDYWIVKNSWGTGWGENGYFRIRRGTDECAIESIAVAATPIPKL

Cruzain = target: T7, Cruzain (Trypanosoma cruzi, UniProt P25779); assay: Cruzain enzyme assay (acetate buffer pH 5.5, Z-Phe-Arg-AMC); format: biochemical; details: 100 mM sodium acetate pH 5.5, 5 mM DTT
T7 construct: made in house
T7 sequence (P25779 123-337 limits assumed): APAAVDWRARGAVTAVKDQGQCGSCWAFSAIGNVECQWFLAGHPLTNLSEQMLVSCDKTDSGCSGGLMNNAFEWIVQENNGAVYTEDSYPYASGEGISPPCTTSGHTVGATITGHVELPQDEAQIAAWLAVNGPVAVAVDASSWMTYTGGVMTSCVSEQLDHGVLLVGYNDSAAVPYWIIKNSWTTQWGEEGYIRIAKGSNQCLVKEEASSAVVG
Method: as §1, with “(seven concentrations tested with at least two in the linear range).” left out
Inhibitor dilutions which produce simple exponential progress curves over a wide range of k obs, were used to determine kinetic parameters. The value of k obs, the rate constant for loss of enzyme activity, was determined from an equation for pseudo first order dynamics using Prism 4.0 (GraphPad). When k obs varied linearly with inhibitor concentration, k ass was determined by linear regression analysis. […]

Papain = target: T8, Papain (Carica papaya, UniProt P00784); assay: Protease inhibition profiling (Reaction Biology Corp): Papain; format: biochemical
T8 construct: Reaction Biology Corp (screening service)
T8 sequence (P00784 134-345): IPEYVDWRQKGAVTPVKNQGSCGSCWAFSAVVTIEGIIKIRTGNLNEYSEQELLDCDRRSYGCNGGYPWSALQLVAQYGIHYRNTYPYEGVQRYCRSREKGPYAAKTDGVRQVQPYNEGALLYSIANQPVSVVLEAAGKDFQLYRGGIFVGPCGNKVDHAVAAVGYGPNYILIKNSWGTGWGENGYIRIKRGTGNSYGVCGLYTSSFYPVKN

[3] = test system: T. cruzi infected J774 macrophages; assay: T. cruzi growth inhibition in infected J774 macrophages (cell survival); format: cell-based, Trypanosoma cruzi CA-I/72; details: 10 µM inhibitor every 48 h until Day 27, experiment terminated on Day 47, untreated control 6 days
Method: CA-I/72 T. cruzi parasites were isolated from a chronic Chagasic patient, cloned, and maintained as previously described.[33]
For growth inhibition studies, J774 macrophages cultured in RPMI-1640 medium with 5% heat inactivated fetal calf serum (FCS) were irradiated (9000 rad) to arrest the cell cycle and plated onto 12-well tissue culture plates for 24 h at 37°C. After infection with 10^5 T. cruzi trypomastigotes per well for 2 hours, monolayers were washed with RPMI medium and treated with the inhibitors at 10 µM in RPMI medium (triplicate wells per inhibitor). Inhibitor stocks were made to 10 mM in DMSO and diluted prior to use. All assays include untreated, K11777-treated, and uninfected macrophage controls. Fresh medium with or without inhibitor was replaced every 48 h and inhibitor efficacy was monitored daily. Survival time was defined as the time before the cell monolayer was destroyed by the infection. Under these culture conditions, T. cruzi completed the intracellular cycle in 6 days in untreated controls. […] Macrophages were subsequently cultured in normal medium for up to 40 days to elucidate if the effective inhibitors were trypanocidal (cure host macrophages) or trypanostatic (delay intracellular cycle of the parasite).

[4] = individual infected mice, 100 mg/kg ip
[5] = individual infected mice, 100 mg/kg ip, 100 mg/kg

T1 sequence (O60911 114-334, species assumed): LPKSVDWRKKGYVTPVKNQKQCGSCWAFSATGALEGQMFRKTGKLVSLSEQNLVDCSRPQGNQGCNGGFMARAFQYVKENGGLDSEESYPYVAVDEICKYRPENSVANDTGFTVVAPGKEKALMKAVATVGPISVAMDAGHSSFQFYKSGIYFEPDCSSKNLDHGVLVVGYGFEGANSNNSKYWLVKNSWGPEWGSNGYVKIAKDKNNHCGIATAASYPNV

Compound	IC50 (Cathepsin V) [nM]	inhibition of tbcatB (in words) (tbcatB)	tbcatB k ass (tbcatB) [M⁻¹ s⁻¹]	inhibition at 1 µM (tbcatB; read-out: tbcatB % inhibition at 1 µM) [%]	EC50 [1] [nM]	IC50 (Cathepsin K) [nM]	T. cruzi infected mouse survival ([2]; 100 mg inhibitor/kg body weight in two daily doses, intraperitoneally, untreated control 21 days) [days]	survival of the acute infection ([2]; 10^6 trypomastigotes CA-I/72, untreated controls died within 21–60 days)	Histopathology, Colon [2, 4]	Histopathology, Liver [2, 4]	Histopathology, Spleen [2, 4]	Histopathology, Heart [2, 5]	Histopathology, Sk. muscle [2, 5]	IC50 (Cathepsin S) [nM]	k obs/[I] at 1 µM, Rhodesain (Rhodesain)	IC50 (Cathepsin C) [nM]	k obs/[I] at 1 µM, Cruzain (Cruzain)	IC50 (Papain) [nM]	T. cruzi infected cell survival [3] [days]
CN1CCN(C(=O)N[C@@H](Cc2ccccc2)C(=O)N[C@H](/C=C/S(=O)(=O)c2ccccc2)CCc2ccccc2)CC1 [K11777]	1.2	weak inhibitors	500 ± 100	48	4200	25	110	survived the acute infection	N	N	N	Mild i/i and N	+AIntense i/i; also recorded: Moderate i/i; also recorded: +AModerate i/i; also recorded: Intense i/i	0.6	48,000±10,200 s^-1 M^-1	0.4	108,000±4,200 s^-1 M^-1	0.4	47
CC[C@@H]([C@H](C)O)n1ncn(-c2ccc(N3CCN(c4ccc(OC[C@@H]5CO[C@@](Cn6cncn6)(c6ccc(F)cc6F)C5)cc4)CC3)cc2)c1=O [posaconazole]					200														
